Reference: ChEMBL document CHEMBL1201862, “PubChem BioAssay data set” (2004)
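Each compound was tested at five concentrations against cells in 96-well plates for 48 hours. Abbreviation: GI50, concentration required for 50% inhibition of growth.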 Activity calls are given as the source filed them. Cut-off read from the data, not from the text of the source: active = GI50 up to about 1.1 µM and inactive = higher.

Assays:
Test in all cases: DTP human tumour cell line panel, 48 h
Malme-3M = test system: Malme-3M
CAKI-1 = test system: CAKI-1
OVCAR-5 = test system: OVCAR-5
OVCAR-4 = test system: OVCAR-4
A498 = test system: A498
EKVX = test system: EKVX
DLD-1 = test system: DLD-1
SN12C = test system: SN12C
HL-60 = test system: HL-60
SW-620 = test system: SW-620
DMS-273 = test system: DMS-273
HT-29 = test system: HT-29
UO-31 = test system: UO-31
COLO 205 = test system: COLO 205
UACC-257 = test system: UACC-257
HOP-92 = test system: HOP-92
SNB-19 = test system: SNB-19
RXF 393 = test system: RXF 393

Measured: GI50

C/C=C/C=N/N(c1nnc(-c2ccccc2)c(-c2ccccc2)n1)S(=O)(=O)c1ccc(C)cc1
inactive: Malme-3M 10.4 µM | CAKI-1 16.9 µM | OVCAR-5 19.3 µM | OVCAR-4 13.2 µM | A498 14.3 µM | EKVX 17.8 µM | DLD-1 5.05 µM | SN12C 8.13 µM | HL-60 2.33 µM | SW-620 4.05 µM | DMS-273 11.1 µM | HT-29 11.7 µM | UO-31 5.74 µM | COLO 205 17.1 µM | UACC-257 8.34 µM | HOP-92 16.2 µM

O=C(/C=C/c1ccccc1)c1ccc(Cl)cc1Cl
inactive: Malme-3M 25.1 µM | CAKI-1 25.9 µM | OVCAR-5 20.6 µM | OVCAR-4 20.7 µM | A498 18.3 µM | SNB-19 27.5 µM | EKVX 28.4 µM | DLD-1 17.1 µM | SN12C 23.1 µM | HL-60 14.8 µM | SW-620 4.8 µM | DMS-273 15.5 µM | HT-29 16.8 µM | UO-31 > 100 µM | COLO 205 20.5 µM | UACC-257 23.8 µM | HOP-92 35.9 µM

COC(=O)/C(C#N)=C1\NN=NN1CCCN1CCOCC1
inactive: Malme-3M > 100 µM | CAKI-1 > 100 µM | A498 > 100 µM | SNB-19 > 100 µM | EKVX > 100 µM | DLD-1 > 100 µM | SN12C > 100 µM | SW-620 > 100 µM | DMS-273 > 100 µM | HT-29 > 100 µM | UO-31 > 100 µM | COLO 205 > 100 µM | UACC-257 > 100 µM | RXF 393 > 100 µM | HOP-92 > 100 µM

COc1ccc2c(c1)CC1c3c(cc4c(c3-2)OCO4)CCN1C (stereo not drawn)
inactive: Malme-3M 28 µM | CAKI-1 23.9 µM | OVCAR-5 30.1 µM | OVCAR-4 23.1 µM | A498 14.4 µM | SNB-19 42 µM | EKVX 33.4 µM | DLD-1 41.9 µM | SN12C 33.3 µM | SW-620 19.5 µM | DMS-273 25.7 µM | HT-29 27.7 µM | UO-31 14 µM | COLO 205 15.8 µM | UACC-257 24.1 µM | HOP-92 18.1 µM

COc1nc(NC2OCC(OC(C)=O)C(OC(C)=O)C2OC(C)=O)c(/N=C\C=N\c2c(NC3OCC(OC(C)=O)C(OC(C)=O)C3OC(C)=O)nc(OC)n(C)c2=O)c(=O)n1C (stereo not drawn)
inactive: Malme-3M > 100 µM | OVCAR-5 > 100 µM | OVCAR-4 > 100 µM | A498 > 100 µM | SNB-19 > 100 µM | EKVX > 100 µM | DLD-1 > 100 µM | SN12C > 100 µM | HL-60 > 100 µM | SW-620 > 100 µM | DMS-273 > 100 µM | HT-29 > 100 µM | UO-31 > 100 µM | COLO 205 > 100 µM | UACC-257 > 100 µM | RXF 393 > 100 µM | HOP-92 > 100 µM

CCCCC1CC(c2cccc([N+](=O)[O-])c2)=NO1 (stereo not drawn)
inactive: Malme-3M > 100 µM | CAKI-1 63.5 µM | OVCAR-5 > 100 µM | OVCAR-4 > 100 µM | A498 49.2 µM | SNB-19 > 100 µM | EKVX 58.2 µM | DLD-1 > 100 µM | SN12C > 100 µM | HL-60 30.4 µM | SW-620 > 100 µM | DMS-273 > 100 µM | HT-29 28.6 µM | UO-31 50.9 µM | COLO 205 > 100 µM | UACC-257 48.3 µM | HOP-92 > 100 µM

O=C(O)CCC1CCc2cccc(OCC(=O)O)c2C1=O (stereo not drawn)
inactive: CAKI-1 > 100 µM | OVCAR-4 > 100 µM | A498 > 100 µM | SNB-19 > 100 µM | EKVX > 100 µM | DLD-1 > 100 µM | SN12C > 100 µM | HL-60 > 100 µM | SW-620 > 100 µM | DMS-273 > 100 µM | HT-29 > 100 µM | COLO 205 > 100 µM | UACC-257 > 100 µM | RXF 393 > 100 µM | HOP-92 > 100 µM
